Measured values from US6737383B1, “Herbicidal oxadiazolidines” (priority 1999, dated 2004).

Key:
blackgrass = test: Test E blackgrass; format: in vivo, Alopecurus myosuroides; conditions: Preemergence; for Blackgrass plant response rating (0 to 100 scale): Rate 250 g/ha; for Plant response rating, Blackgrass: 0 to 100 scale where 0 is no effect and 100 is complete control
green foxtail = test: Test E green foxtail; format: in vivo, Setaria viridis; conditions: Preemergence; for Green foxtail plant response rating (0 to 100 scale): Rate 250 g/ha; for Plant response rating, Green foxtail: 0 to 100 scale where 0 is no effect and 100 is complete control
winter wheat [1] = test: Test E winter wheat; format: in vivo, Triticum aestivum; conditions: Preemergence; for Wheat (winter) plant response rating (0 to 100 scale): Rate 250 g/ha; for Plant response rating, Wheat (winter): 0 to 100 scale where 0 is no effect and 100 is complete control
rape = test: Test B pre/postemergence rape; format: in vivo, Brassica napus; conditions: for Rape plant response rating (0 to 10 scale): 0 is no effect
Summary of the method: (§1)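 Herbicidal effect was estimated by eye on a ten-point control scale after plants spent twelve to sixteen days in a greenhouse following soil or foliar treatment. Foliar sprays targeted plants at one to four leaves; all doses were formulated in a non-phytotoxic solvent with surfactant.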

wheat = test: Test B pre/postemergence wheat; format: in vivo, Triticum aestivum; conditions: for Wheat plant response rating (0 to 10 scale): Rate 125 g/ha, 0 is no effect
Summary of the method: as §1

winter barley = test: Test E winter barley; format: in vivo, Hordeum vulgare; conditions: Preemergence; for Barley (winter) plant response rating (0 to 100 scale): Rate 250 g/ha; for Plant response rating, Barley (winter): 0 to 100 scale where 0 is no effect and 100 is complete control
winter wheat [2] = test: Test E winter wheat; format: in vivo, Triticum aestivum; conditions: Postemergence; for Plant response rating, Wheat (winter): 0 to 100 scale; for Wheat (winter) plant response rating: Rate 250 g/ha, 0 to 100 scale where 0 is no effect and 100 is complete control
Summary of the method: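 Each compound, carried in a non-phytotoxic solvent blend including surfactant, was applied (postemergence: over the top of young plants at 1- to 4-leaf stage). Plants stayed in the greenhouse about 21 to 28 days before visual comparison with untreated controls.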

wild oat = test: Test E wild oat; format: in vivo, Avena fatua; conditions: Preemergence; for Wild oat plant response rating (0 to 100 scale): Rate 250 g/ha; for Plant response rating, Wild oat: 0 to 100 scale where 0 is no effect and 100 is complete control
velvetleaf = test: Test B pre/postemergence velvetleaf; format: in vivo, Abutilon theophrasti; conditions: for Velvetleaf plant response rating (0 to 10 scale): Rate 125 g/ha, 0 is no effect
Summary of the method: as §1

Italian ryegrass = test: Test E Italian ryegrass; format: in vivo, Lolium multiflorum; conditions: Preemergence; for I. Ryegrass plant response rating (0 to 100 scale): Rate 250 g/ha; for Plant response rating, I. Ryegrass: 0 to 100 scale where 0 is no effect and 100 is complete control
[3] = Postemergence, Rate 125 g/ha, scale of 0 to 10 where 0 is no effect and 10 is complete control
[4] = Preemergence, Rate 62 g/ha, scale of 0 to 10 where 0 is no effect and 10 is complete control
[5] = Preemergence, Rate 125 g/ha, 10 is complete control
[6] = Preemergence, Rate 250 g/ha, scale 0 to 10, 0 is no effect, 10 is complete control
[7] = Preemergence, Rate 500 g/ha, scale 0 to 10 (0 no effect, 10 complete control)
[8] = Rate 62 g/ha, Postemergence, scale of 0 to 10 where 0 is no effect and 10 is complete control
[9] = Rate 250 g/ha, Postemergence, scale 0 to 10, 0 is no effect, 10 is complete control
[10] = Rate 500 g/ha, Postemergence, scale 0 to 10
[11] = Preemergence, 10 is complete control
[12] = Rate 1000 g/ha, 0 is no effect and 100 is complete control
[13] = Rate 500 g/ha, 0 no effect, 100 complete control

CC1CCCCC1n1c(=O)on(C(=O)N(c2ccccc2)C(C)C)c1=O (centres unmarked) [Compound 162] was tested, and the “Blackgrass plant response rating (0 to 100 scale)” value (“Blackgrass plant response rating” for short) (blackgrass) was 55, the “Plant response rating, Blackgrass” value (blackgrass; Rate 500 g/ha) was 60 and the “Plant response rating, Blackgrass” value (blackgrass; Rate 1000 g/ha) was 55. The “Green foxtail plant response rating (0 to 100 scale)” value (shortened to “Green foxtail plant response rating”) (green foxtail) was 60, the “Plant response rating, Green foxtail” value (green foxtail; Rate 500 g/ha) was 65 and the “Plant response rating, Green foxtail” value (green foxtail; Rate 1000 g/ha) was 85. For the same compound, the “Wheat (winter) plant response rating (0 to 100 scale)” value (shortened to “Wheat … (0 to 100 scale)”) (winter wheat [1]) was 30, the “Plant response rating, Wheat (winter)” value (winter wheat [1]; Rate 500 g/ha) was 15 and the “Plant response rating, Wheat (winter)” value (winter wheat [1]; Rate 1000 g/ha) was 40. The “Rape plant response rating” value (rape; [3]) was 0, the “Rape plant response rating” value (rape; [4]) was 0 and the “Rape plant response rating (0 to 10 scale)” value (rape; [5]) was 2. The “Rape plant response rating” value (rape; [6]) was 4, the “Rape plant response rating” value (rape; [7]) was 9 and the “Rape plant response rating” value (rape; [8]) was 0. The “Plant response rating, Rape” value (rape; [9]) was 0, the “Rape plant response rating” value (rape; [10]) was 0 and the “Wheat plant response rating” value (wheat; [4]) was 0. The “Wheat plant response rating (0 to 10 scale)” value (wheat; [11]) was 0, the “Wheat plant response rating” value (wheat; [6]) was 0 and the “Wheat plant response rating” value (wheat; [7]) was 0. For the same compound, the “Plant response rating, Wheat” value (wheat; [9]) was 0, the “Wheat plant response rating” value (wheat; [10]) was 0 and the “Barley (winter) plant response rating (0 to 100 scale)” value (“Barley (winter) plant response rating” below) (winter barley) was 30. For the same compound, the “Plant response rating, Barley (winter)” value (winter barley; Rate 500 g/ha) was 30, the “Plant response rating, Barley (winter)” value (winter barley; Rate 1000 g/ha) was 40 and the “Plant response rating, Wheat (winter)” value (winter wheat [2]; [12]) was 50. For the same compound, the “Plant response rating, Wheat (winter)” value (winter wheat [2]; [13]) was 40, the “Wheat (winter) plant response rating” value (winter wheat [2]) was 30 and the “Wild oat plant response rating (0 to 100 scale)” value (shortened to “Wild oat plant response rating”) (wild oat) was 50. The “Plant response rating, Wild oat” value (wild oat; Rate 500 g/ha) was 50, the “Plant response rating, Wild oat” value (wild oat; Rate 1000 g/ha) was 60 and the “Velvetleaf plant response rating” value (velvetleaf; [4]) was 0. The “Velvetleaf plant response rating (0 to 10 scale)” value (velvetleaf; [11]) was 0, the “Velvetleaf plant response rating” value (velvetleaf; [6]) was 0 and the “Velvetleaf plant response rating” value (velvetleaf; [7]) was 0. For the same compound, the “Plant response rating, Velvetleaf” value (velvetleaf; [9]) was 4, the “Velvetleaf plant response rating” value (velvetleaf; [10]) was 4 and the “I. Ryegrass plant response rating (0 to 100 scale)” value (from here on “I. Ryegrass plant response rating”) (Italian ryegrass) was 50. The “Plant response rating, I. Ryegrass” value (Italian ryegrass; Rate 500 g/ha) was 65 and the “Plant response rating, I. Ryegrass” value (Italian ryegrass; Rate 1000 g/ha) was 70.

CC(C)N(C(=O)n1oc(=O)n([C@@H](C)c2ccccc2)c1=O)c1ccc(F)cc1 [Compound 167] was tested, and the “Blackgrass plant response rating” value (blackgrass) was 50, the “Plant response rating, Blackgrass” value (blackgrass; Rate 500 g/ha) was 60 and the “Plant response rating, Blackgrass” value (blackgrass; Rate 1000 g/ha) was 80. For the same compound, the “Green foxtail plant response rating” value (green foxtail) was 60, the “Plant response rating, Green foxtail” value (green foxtail; Rate 500 g/ha) was 85 and the “Plant response rating, Green foxtail” value (green foxtail; Rate 1000 g/ha) was 100. The “Wheat … (0 to 100 scale)” value (winter wheat [1]) was 10, the “Plant response rating, Wheat (winter)” value (winter wheat [1]; Rate 500 g/ha) was 20 and the “Plant response rating, Wheat (winter)” value (winter wheat [1]; Rate 1000 g/ha) was 30. The “Rape plant response rating” value (rape; [3]) was 0, the “Rape plant response rating” value (rape; [4]) was 0 and the “Rape plant response rating (0 to 10 scale)” value (rape; [5]) was 0. For the same compound, the “Rape plant response rating” value (rape; [6]) was 0, the “Rape plant response rating” value (rape; [7]) was 5 and the “Rape plant response rating” value (rape; [8]) was 0. For the same compound, the “Plant response rating, Rape” value (rape; [9]) was 0, the “Rape plant response rating” value (rape; [10]) was 0 and the “Wheat plant response rating” value (wheat; [4]) was 0. The “Wheat plant response rating (0 to 10 scale)” value (wheat; [11]) was 0, the “Wheat plant response rating” value (wheat; [6]) was 0 and the “Wheat plant response rating” value (wheat; [7]) was 0. For the same compound, the “Plant response rating, Wheat” value (wheat; [9]) was 0, the “Wheat plant response rating” value (wheat; [10]) was 0 and the “Barley (winter) plant response rating” value (winter barley) was 40. The “Plant response rating, Barley (winter)” value (winter barley; Rate 500 g/ha) was 40, the “Plant response rating, Barley (winter)” value (winter barley; Rate 1000 g/ha) was 20 and the “Plant response rating, Wheat (winter)” value (winter wheat [2]; [12]) was 50. The “Plant response rating, Wheat (winter)” value (winter wheat [2]; [13]) was 40, the “Wheat (winter) plant response rating” value (winter wheat [2]) was 30 and the “Wild oat plant response rating” value (wild oat) was 30. The “Plant response rating, Wild oat” value (wild oat; Rate 500 g/ha) was 40, the “Plant response rating, Wild oat” value (wild oat; Rate 1000 g/ha) was 50 and the “Velvetleaf plant response rating” value (velvetleaf; [4]) was 0. The “Velvetleaf plant response rating (0 to 10 scale)” value (velvetleaf; [11]) was 0, the “Velvetleaf plant response rating” value (velvetleaf; [6]) was 0 and the “Velvetleaf plant response rating” value (velvetleaf; [7]) was 3. The “Plant response rating, Velvetleaf” value (velvetleaf; [9]) was 0, the “Velvetleaf plant response rating” value (velvetleaf; [10]) was 2 and the “I. Ryegrass plant response rating” value (Italian ryegrass) was 30. For the same compound, the “Plant response rating, I. Ryegrass” value (Italian ryegrass; Rate 500 g/ha) was 65 and the “Plant response rating, I. Ryegrass” value (Italian ryegrass; Rate 1000 g/ha) was 80.

For CC(C)N(C(=O)n1oc(=O)n([C@@H](C)c2ccccc2)c1=O)c1ccc(Cl)cc1 [Compound 174], the “Blackgrass plant response rating” value (blackgrass) was 30, the “Plant response rating, Blackgrass” value (blackgrass; Rate 500 g/ha) was 50 and the “Plant response rating, Blackgrass” value (blackgrass; Rate 1000 g/ha) was 55. The “Green foxtail plant response rating” value (green foxtail) was 30, the “Plant response rating, Green foxtail” value (green foxtail; Rate 500 g/ha) was 50 and the “Plant response rating, Green foxtail” value (green foxtail; Rate 1000 g/ha) was 85. For the same compound, the “Wheat … (0 to 100 scale)” value (winter wheat [1]) was 60, the “Plant response rating, Wheat (winter)” value (winter wheat [1]; Rate 500 g/ha) was 50 and the “Plant response rating, Wheat (winter)” value (winter wheat [1]; Rate 1000 g/ha) was 40. For the same compound, the “Rape plant response rating” value (rape; [3]) was 0, the “Rape plant response rating” value (rape; [4]) was 0 and the “Rape plant response rating (0 to 10 scale)” value (rape; [5]) was 0. The “Rape plant response rating” value (rape; [6]) was 0, the “Rape plant response rating” value (rape; [7]) was 4 and the “Rape plant response rating” value (rape; [8]) was 0. The “Plant response rating, Rape” value (rape; [9]) was 0, the “Rape plant response rating” value (rape; [10]) was 2 and the “Wheat plant response rating” value (wheat; [4]) was 0. The “Wheat plant response rating (0 to 10 scale)” value (wheat; [11]) was 0, the “Wheat plant response rating” value (wheat; [6]) was 0 and the “Wheat plant response rating” value (wheat; [7]) was 0. For the same compound, the “Plant response rating, Wheat” value (wheat; [9]) was 0, the “Wheat plant response rating” value (wheat; [10]) was 0 and the “Barley (winter) plant response rating” value (winter barley) was 0. The “Plant response rating, Barley (winter)” value (winter barley; Rate 500 g/ha) was 0, the “Plant response rating, Barley (winter)” value (winter barley; Rate 1000 g/ha) was 10 and the “Plant response rating, Wheat (winter)” value (winter wheat [2]; [12]) was 50. For the same compound, the “Plant response rating, Wheat (winter)” value (winter wheat [2]; Rate 500 g/ha, 0 is no effect, 100 is complete control) was 40, the “Wild oat plant response rating” value (wild oat) was 50 and the “Plant response rating, Wild oat” value (wild oat; Rate 500 g/ha) was 40. For the same compound, the “Plant response rating, Wild oat” value (wild oat; Rate 1000 g/ha) was 50, the “Velvetleaf plant response rating” value (velvetleaf; [4]) was 0 and the “Velvetleaf plant response rating (0 to 10 scale)” value (velvetleaf; [11]) was 0. The “Velvetleaf plant response rating” value (velvetleaf; [6]) was 0, the “Velvetleaf plant response rating” value (velvetleaf; [7]) was 0 and the “Plant response rating, Velvetleaf” value (velvetleaf; [9]) was 0. The “Velvetleaf plant response rating” value (velvetleaf; [10]) was 0, the “I. Ryegrass plant response rating” value (Italian ryegrass) was 0 and the “Plant response rating, I. Ryegrass” value (Italian ryegrass; Rate 500 g/ha) was 20. For the same compound, the “Plant response rating, I. Ryegrass” value (Italian ryegrass; Rate 1000 g/ha) was 40.
